Columns and labels:
[1] = Paired comparison testing (2-AFC) of sweet intensity versus 300 ppm Rebaudioside A by trained panelists; assay type: in vivo; details: for Sample selected as sweeter by panelists, Total: LSB pH ~7.1; for Sweetness compared with 300 ppm Rebaudioside A (2-AFC): 0.25 mL sample, LSB pH ~7.1, 0% ethanol
Experimental: Paired comparison tests (2-Alternative Forced Choice difference tests, i.e., 2-AFC) were used to determine sweet intensity equivalence between samples prepared with Rebaudioside A and the test sweet compound. Trained external panelists were used for the taste tests.
2-AFC tests, compound solutions were tested against 300 ppm Rebaudioside A to determine how they matched in sweet intensity. Panelists tasted both samples and indicated which sample was sweeter in each pair. Panelists rinsed their mouths with water prior to starting any test. Samples were presented to panelists in randomized, counterbalanced pairs and were labeled with 3-digit blinding codes. Panelists rinsed with water between samples as well as between pairs. There was a 90 second delay to clear the mouth of any tastes after each pair evaluation. Three replicates of each test were performed.
The 2-AFC data was analyzed to determine significant differences between 300 ppm Rebaudioside A and compound solutions using a probability table for a two-tailed test (alpha=0.05).
The paired comparison testing was performed using a 0.25 mL sample size, and all samples were made with Low Sodium Buffer (LSB) pH ˜7.1 and contain 0% ethanol.

[2] = molecular target: T1, hT1R2/hT1R3 (Homo sapiens, UniProt Q7RTX0+Q8TE23); assay: HTS-Sweet: FLIPR calcium fluorometric imaging assay in cells stably expressing the human sweet taste receptor and a promiscuous G protein; assay type: cell-based; details: FLIPR, Fluo-4AM, 10 concentrations 0.4 μM to 200 μM in duplicates; read-out: Compound EC50s for hT1R2/hT1R3
T1 construct: expressed in transfected cells; parental cells lack the receptor
T1 sequence (Q8TE23 20-839): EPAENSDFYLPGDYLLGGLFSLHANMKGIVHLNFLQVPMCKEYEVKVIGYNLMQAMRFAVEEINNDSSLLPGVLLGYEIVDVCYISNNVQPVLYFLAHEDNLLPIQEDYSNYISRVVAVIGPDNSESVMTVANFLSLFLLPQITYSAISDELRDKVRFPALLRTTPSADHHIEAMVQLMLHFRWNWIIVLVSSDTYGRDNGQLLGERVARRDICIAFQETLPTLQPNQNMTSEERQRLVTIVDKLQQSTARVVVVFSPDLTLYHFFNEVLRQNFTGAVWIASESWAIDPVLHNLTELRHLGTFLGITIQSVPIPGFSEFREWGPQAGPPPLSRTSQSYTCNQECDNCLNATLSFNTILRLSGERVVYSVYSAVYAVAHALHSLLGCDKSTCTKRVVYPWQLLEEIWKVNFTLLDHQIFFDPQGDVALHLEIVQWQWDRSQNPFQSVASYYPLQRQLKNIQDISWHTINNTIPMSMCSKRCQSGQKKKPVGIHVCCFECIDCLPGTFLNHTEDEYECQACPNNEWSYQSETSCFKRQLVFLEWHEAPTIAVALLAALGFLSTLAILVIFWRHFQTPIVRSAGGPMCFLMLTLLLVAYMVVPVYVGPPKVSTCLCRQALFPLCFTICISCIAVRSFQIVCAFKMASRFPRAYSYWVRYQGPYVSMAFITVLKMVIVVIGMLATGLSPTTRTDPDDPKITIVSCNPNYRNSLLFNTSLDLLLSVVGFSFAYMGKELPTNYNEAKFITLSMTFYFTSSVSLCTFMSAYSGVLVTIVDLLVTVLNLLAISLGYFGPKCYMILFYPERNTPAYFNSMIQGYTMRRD
T1 sequence (Q7RTX0 21-852): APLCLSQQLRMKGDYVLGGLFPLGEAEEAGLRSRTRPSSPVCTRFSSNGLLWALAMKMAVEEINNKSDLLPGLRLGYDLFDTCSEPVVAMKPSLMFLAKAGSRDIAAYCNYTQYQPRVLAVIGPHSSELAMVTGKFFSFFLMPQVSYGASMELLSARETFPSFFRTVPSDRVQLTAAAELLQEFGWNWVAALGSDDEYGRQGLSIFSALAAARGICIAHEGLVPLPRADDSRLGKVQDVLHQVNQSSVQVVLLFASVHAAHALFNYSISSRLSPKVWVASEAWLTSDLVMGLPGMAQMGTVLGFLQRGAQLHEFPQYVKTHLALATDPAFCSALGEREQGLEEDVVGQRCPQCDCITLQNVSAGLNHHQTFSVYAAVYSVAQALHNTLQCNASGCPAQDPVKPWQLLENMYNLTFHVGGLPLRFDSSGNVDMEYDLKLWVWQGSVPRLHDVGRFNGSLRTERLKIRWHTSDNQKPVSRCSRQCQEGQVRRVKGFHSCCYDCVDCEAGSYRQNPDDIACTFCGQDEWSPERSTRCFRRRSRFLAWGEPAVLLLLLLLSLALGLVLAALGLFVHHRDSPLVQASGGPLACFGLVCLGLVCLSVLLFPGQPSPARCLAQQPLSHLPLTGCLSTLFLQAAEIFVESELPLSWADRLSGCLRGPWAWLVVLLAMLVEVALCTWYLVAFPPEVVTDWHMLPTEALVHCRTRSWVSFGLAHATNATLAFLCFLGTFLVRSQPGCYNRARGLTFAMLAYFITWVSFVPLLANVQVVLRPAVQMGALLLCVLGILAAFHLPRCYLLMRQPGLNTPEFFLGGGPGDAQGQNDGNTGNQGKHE
Experimental: Compound activity (EC50) was determined using an automated fluorometric imaging assay on a FLIPR instrument (Fluorometric […] Plate Reader, Molecular Devices, Sunnyvale, Calif.). Cell stably expressing the human sweet taste receptor and a promiscuous G protein were seeded into 384-well plates (at approximately 40,000 cells per well). Cells were grown for 24 hours at 37° C. Cells were then loaded with the calcium dye Fluo-4AM (Molecular Probes, Eugene, Oreg.), 4 μM in a phosphate buffered saline (D-PBS) (Invitrogen, Carlsbad, Calif.), for 1 hour at room temperature. After replacement with 25 μl D-PBS, stimulation was performed in the FLIPR instrument and at room temperature by the addition of 25 μl D-PBS supplemented with different stimuli at concentrations corresponding to twice the desired final level. Receptor activity was quantified by determining the maximal fluorescence increases (using a 480 nm excitation and 535 nm emission) after normalization to basal fluorescence intensity measured before stimulation.
For dose-responses analysis, stimuli were presented in duplicates at 10 different concentrations ranging from 0.4 μM to 200 μM. EC50 s were determined using a non-linear regression algorithm, where the Hill slope, bottom asymptotes and top asymptotes were allowed to vary.

[3] = 250 ppm Compound 18 vs 300 ppm Rebaudioside A, n = 36 (12 panelists × 3 reps), p-value 0.681
[4] = 300 ppm Compound 1 vs 300 ppm Rebaudioside A, n = 45 (15 panelists × 3 reps), p-value 0.072
[5] = 300 ppm Compound 18 vs 300 ppm Rebaudioside A, n = 42 (14 panelists × 3 reps), p-value 0.044

In the case of `C=C1C[C@@]23CC[C@H]4[C@@](C)(CCC[C@@]4(C)C(=O)O[C@@H]4O[C@H](CO)[C@@H](O)[C@H](O)[C@H]4O)[C@@H]2CC[C@]1(O[C@@H]1O[C@H](CO)[C@@H](O)[C@H](O[C@@H]2O[C@H](CO)[C@@H](O)[C@H](O)[C@H]2O)[C@H]1O[C@@H]1O[C@H](CO)[C@@H](O)[C@H](O)[C@H]1O)C3` [Rebaudioside A, reference compound], the “Sample selected as sweeter by panelists, Total” value (“Sample selected as sweeter” for short) [1, 3] is reported as 16, the “Sample selected as sweeter” value [1, 4] is reported as 29 and the “Sample selected as sweeter” value [1, 5] is reported as 14.

In the case of `C[C@H](CC[C@@H](O[C@@H]1O[C@H](CO)[C@@H](O)[C@H](O)[C@H]1O[C@@H]1O[C@H](CO)[C@@H](O)[C@H](O[C@@H]2O[C@H](CO)[C@@H](O)[C@H](O)[C@H]2O)[C@H]1O)C(C)(C)O)C1CC[C@@]2(C)C3CC=C4C(CC[C@H](O[C@@H]5O[C@H](CO)[C@@H](O)[C@H](O[C@@H]6O[C@H](CO)[C@@H](O)[C@H](O)[C@H]6O)[C@H]5O)C4(C)C)[C@]3(C)[C@H](O)C[C@]12C` (stereo partly shown) [Compound 18], the “Sample selected as sweeter” value [1, 3] is reported as 20, the “Sample selected as sweeter” value [1, 5] is reported as 28 and the “Sweetness compared with 300 ppm Rebaudioside A (2-AFC)” value ([1]; test compound at 250 ppm) is reported as “not significantly different in sweetness”. For the same molecule, the “Sweetness compared with 300 ppm Rebaudioside A (2-AFC)” value ([1]; test compound at 300 ppm) was “significantly sweeter”.

In the case of `C[C@H](CC[C@@H](O[C@@H]1O[C@H](CO)[C@@H](O)[C@H](O)[C@H]1O[C@@H]1O[C@H](CO)[C@@H](O)[C@H](O)[C@H]1O)C(C)(C)O)C1CC[C@@]2(C)C3CC=C4C(CC[C@H](O[C@@H]5O[C@H](CO)[C@@H](O[C@@H]6O[C@H](CO)[C@@H](O)[C@H](O)[C@H]6O)[C@H](O)[C@H]5O)C4(C)C)[C@]3(C)[C@H](O)C[C@]12C` (stereo partly shown) [Compound 1], the “Sample selected as sweeter” value [1, 4] is reported as 16 and the “Sweetness compared with 300 ppm Rebaudioside A (2-AFC)” value ([1]; test compound at 300 ppm) is reported as “not significantly different in sweetness”.

For `C[C@H](CC[C@@H](O[C@@H]1O[C@H](CO[C@@H]2O[C@H](CO)[C@@H](O)[C@H](O)[C@H]2O)[C@@H](O)[C@H](O)[C@H]1O[C@@H]1O[C@H](CO)[C@@H](O)[C@H](O)[C@H]1O)C(C)(C)O)C1CC[C@@]2(C)C3CC=C4C(CC[C@H](O[C@@H]5O[C@H](CO[C@@H]6O[C@H](CO)[C@@H](O)[C@H](O)[C@H]6O)[C@@H](O)[C@H](O)[C@H]5O)C4(C)C)[C@]3(C)C=C[C@]12C` (stereo partly shown) [Compound 31], the EC50 [2] was over 30 µM.

— US11357246B2, “High intensity sweeteners” (Firmenich Incorporated, priority 2015, dated 2022)
